One assay concerns the target T1, human factor XIa (Homo sapiens, UniProt P03951).
T1 construct: purchased Kordia
Briefly: Measurement of FXIa inhibition (fluorogenic peptide substrate Boc-Glu(OBzl)-Ala-Arg-AMC). The class given is biochemical. The note with it: factor XIa from Kordia 0.45 nM, 15 min pre-incubation, 30 min at 22° C., fluorescence.

The test system of the next assay is human and animal plasma. In words: Determination of anticoagulatory activity: activated partial thromboplastin time (aPTT) in plasma. As to conditions: concentration of test substance which brings about a 1.5-fold extension of the aPTT; plasma in vitro, C.K. Prest kit. The procedure, abridged:
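Citrated plasma (human, mouse, rat, rabbit, pig, dog) incubated with varying compound concentrations and cephalin/kaolin PTT reagent for 3 minutes at 37° C.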

By IC50 is commonly meant the concentration that gives 50% inhibition. Lower therefore signals greater potency.

Where a name gives a salt, the structure may show the parent alone.

T1 sequence (P03951 388-625 limits assumed): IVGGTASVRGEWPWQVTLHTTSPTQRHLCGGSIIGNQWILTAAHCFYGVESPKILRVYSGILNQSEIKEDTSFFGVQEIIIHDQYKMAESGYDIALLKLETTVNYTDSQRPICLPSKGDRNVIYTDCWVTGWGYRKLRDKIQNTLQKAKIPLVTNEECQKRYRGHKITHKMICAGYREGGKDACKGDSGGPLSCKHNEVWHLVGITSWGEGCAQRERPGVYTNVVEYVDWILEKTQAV
T1 sequence (P03951 19-387 partner limits assumed): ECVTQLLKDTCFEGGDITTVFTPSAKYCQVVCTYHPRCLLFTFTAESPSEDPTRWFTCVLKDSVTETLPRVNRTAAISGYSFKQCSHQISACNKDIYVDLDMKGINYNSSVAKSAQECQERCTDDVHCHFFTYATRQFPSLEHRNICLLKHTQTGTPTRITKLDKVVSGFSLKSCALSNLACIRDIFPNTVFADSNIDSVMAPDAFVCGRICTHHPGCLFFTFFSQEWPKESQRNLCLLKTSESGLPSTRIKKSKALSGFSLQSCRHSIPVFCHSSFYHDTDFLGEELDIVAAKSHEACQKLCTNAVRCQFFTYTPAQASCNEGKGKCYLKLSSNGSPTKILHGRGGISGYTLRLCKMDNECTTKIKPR

On human factor XIa, `CC(=O)Nc1ccc(Cl)c(-c2cccc(C[C@H](NC(=O)[C@H]3CC[C@H](CN)CC3)C(=O)Nc3ccc(-c4nnn[nH]4)cc3)c2)c1` [Example 86, trans-N-[(2S)-3-[5′-(Acetylamino)-2′-chlorobiphenyl-3-yl]-1-oxo-1-{[4-(1H-tetrazol-5-yl)phenyl]amino}propan-2-yl]-4-(aminomethyl)cyclohexanecarboxamide hydrochloride] displayed an IC50 of 2.5 nM. The aPTT in the assay with human and animal plasma was found to be 0.24 µmol/L.

With `Cc1ccc2[nH]ncc2c1-c1cccc(C[C@H](NC(=O)[C@H]2CC[C@H](CN)CC2)C(=O)Nc2ccc(-c3noc(=O)[nH]3)cc2)c1` [Example 87, N-alpha-{[trans-4-(Aminomethyl)cyclohexyl]carbonyl}-3-(5-methyl-1H-indazol-4-yl)-N-[4-(5-oxo-4,5-dihydro-1,2,4-oxadiazol-3-yl)phenyl]-L-phenylalaninamide hydrochloride], on human factor XIa, the IC50 turned out to be 3.5 nM. This compound registered an aPTT with human and animal plasma of 0.49 µmol/L.

Compound `CN(C)CCCOc1ccc(-c2cccc(C[C@H](NC(=O)[C@H]3CC[C@H](CN)CC3)C(=O)Nc3ccc(-c4nnc(Cl)[nH]4)cc3)c2)cn1` [Example 90, N-alpha-{[trans-4-(Aminomethyl)cyclohexyl]carbonyl}-N-[4-(3-chloro-4H-1,2,4-triazol-5-yl)phenyl]-3-{6-[3-(dimethylamino)propoxy]pyridin-3-yl}-L-phenylalaninamide hydrochloride] gave an IC50 against human factor XIa of 5.8 nM. In the assay on human and animal plasma, this compound had an aPTT of 0.08 µmol/L.

Take `CN1CCN(c2ncc(-c3cccc(C[C@H](NC(=O)[C@H]4CC[C@H](CN)CC4)C(=O)Nc4ccc(-c5nnc(Cl)[nH]5)cc4)c3)cn2)CC1` [Example 91, N-alpha-{[trans-4-(Aminomethyl)cyclohexyl]carbonyl}-N-[4-(3-chloro-4H-1,2,4-triazol-5-yl)phenyl]-3-[2-(4-methylpiperazin-1-yl)pyrimidin-5-yl]-L-phenylalaninamide hydrochloride]: it took 3.5 nM to reach half-maximal inhibition on human factor XIa (IC50). Further, in the assay with human and animal plasma, the aPTT amounted to 0.06 µmol/L.

At human factor XIa, `NC[C@H]1CC[C@H](C(=O)N[C@@H](Cc2cccc(-c3cnc(N4CCOCC4)nc3)c2)C(=O)Nc2ccc(-c3nnc(Cl)[nH]3)cc2)CC1` [Example 92, N-alpha-{[trans-4-(Aminomethyl)cyclohexyl]carbonyl}-N-[4-(3-chloro-4H-1,2,4-triazol-5-yl)phenyl]-3-[2-(morpholin-4-yl)pyrimidin-5-yl]-L-phenylalaninamide hydrochloride] displayed an IC50 of 3.6 nM. In the assay on human and animal plasma, this compound came in with an aPTT of 0.37 µmol/L.

Compound `CN(C)c1ncc(-c2cccc(C[C@H](NC(=O)[C@H]3CC[C@H](CN)CC3)C(=O)Nc3ccc(-c4nnc(Cl)[nH]4)cc3)c2)cn1` [Example 93, N-alpha-{[trans-4-(Aminomethyl)cyclohexyl]carbonyl}-N-[4-(3-chloro-4H-1,2,4-triazol-5-yl)phenyl]-3-[2-(dimethylamino)pyrimidin-5-yl]-L-phenylalaninamide hydrochloride] returned an IC50 at human factor XIa of 5.3 nM. Also, the aPTT with human and animal plasma stood at 0.48 µmol/L.

`CC(=O)Nc1ncc(-c2cccc(C[C@H](NC(=O)[C@H]3CC[C@H](CN)CC3)C(=O)Nc3ccc(-c4nnn[nH]4)cc3)c2)c(C)n1` [Example 94, 3-[2-(Acetylamino)-4-methylpyrimidin-5-yl]-N-alpha-{[trans-4-(aminomethyl)cyclohexyl]-carbonyl}-N-[4-(1H-tetrazol-5-yl)phenyl]-L-phenylalaninamide hydrochloride] returned an IC50 on human factor XIa of 5.4 nM. This compound also gave an aPTT with human and animal plasma of 0.23 µmol/L.

At human factor XIa, `Cc1nc(N)ncc1-c1cccc(C[C@H](NC(=O)[C@H]2CC[C@H](CN)CC2)C(=O)Nc2ccc(-c3nnn[nH]3)cc2)c1` [Example 95, N-alpha-{[trans-4-(Aminomethyl)cyclohexyl]carbonyl}-3-(2-amino-4-methylpyrimidin-5-yl)-N-[4-(1H-tetrazol-5-yl)phenyl]-L-phenylalaninamide hydrochloride] had an IC50 of 5.4 nM. The compound also had an aPTT with human and animal plasma of 0.24 µmol/L.

The values above are taken from US20160244437A1, “SUBSTITUTED PHENYLALANINE DERIVATIVES” (BAYER PHARMA AKTIENGESELLSCHAFT, priority 2013, published 2016).
